In brackets after ≈: the same amount, converted by molar mass. Where a name gives a salt, the structure may show the parent alone. Read-outs that look alike come from different tables or passages of the source.
Legend:
Test in all cases: In vitro antibacterial activity (MIC)
Assay type in all cases: cell-based
[1] = system: E. coli 387-1
How it was run: (§1)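 Twofold-style dilution series (128 to 0.008 μg/ml) made in Mueller-Hinton broth, dispensed, then inoculated with 1.5 μl of a 10^-2 overnight-culture dilution. Plates sealed, held overnight at 37° C, inspected with a viewer.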

[2] = system: P. aeruginosa 503-820; details: Pseudomonas aeruginosa, 503820; P. aeruginosa 503-820; read-out: MIC
How it was run: as §1

[3] = system: S. pneumoniae 6302; details: Streptococcus pneumoniae, 6302, S. pneumoniae 6302; read-out: MIC
How it was run: as §1

[4] = system: C. diversus CDC 1663-72; details: Citrobacter koseri, CDC166372
How it was run: as §1

[5] = system: P. vulgaris 100; details: Proteus vulgaris
How it was run: as §1

[6] = system: E. cloacae P99; details: Enterobacter cloacae, P99, E. cloacae P99
How it was run: as §1

[7] = system: K. pneumoniae A; details: Klebsiella pneumoniae
How it was run: as §1

[8] = system: P. vulgaris 101; details: Proteus vulgaris, 101, P. vulgaris 101; read-out: MIC
How it was run: as §1

[9] = system: P. aeruginosa 503-56; details: Pseudomonas aeruginosa, 50356, P. aeruginosa 503-56
How it was run: as §1

[10] = system: E. coli 5152
How it was run: as §1

[11] = system: E. aerogenes 83; details: Klebsiella aerogenes, 83, E. aerogenes 83; read-out: MIC
How it was run: as §1

[12] = system: P. aeruginosa Stone 130; details: Pseudomonas aeruginosa, STONE130, read-out: MIC
How it was run: as §1

[13] = system: K. pneumoniae 4964
How it was run: as §1

[14] = system: S. pyogenes 503-782; details: Streptococcus pyogenes, 503782; S. pyogenes 503-782; read-out: MIC
How it was run: as §1

[15] = system: E. coli 4; details: Escherichia coli, 4, E. coli 4; read-out: MIC
How it was run: as §1

[16] = system: P. vulgaris ATCC 6380; details: Proteus vulgaris
How it was run: as §1

[17] = system: S. marcescens S147; details: Serratia marcescens; S. marcescens S147; read-out: MIC
How it was run: as §1

[18] = system: S. aureus Smith; details: Staphylococcus aureus, S. aureus Smith; read-out: MIC
How it was run: as §1

[19] = system: K. pneumoniae 35
How it was run: as §1

[20] = system: P. aeruginosa 6148B; details: Pseudomonas aeruginosa, read-out: MIC
How it was run: as §1

[21] = system: P. rettgeri ATCC 9250; details: Providencia rettgeri, ATCC9250, P. rettgeri ATCC 9250; read-out: MIC
How it was run: as §1

[22] = system: S. marcescens S4; details: Serratia marcescens, S4, S. marcescens S4; read-out: MIC
How it was run: as §1

[23] = system: S. pyogenes 4; details: Streptococcus pyogenes, 4, S. pyogenes 4; read-out: MIC
How it was run: as §1

[24] = system: S. marcescens 5805
How it was run: as §1

[25] = system: P. aeruginosa 8710; details: Pseudomonas aeruginosa; P. aeruginosa 8710; read-out: MIC
How it was run: as §1

[26] = system: S. marcescens S1; details: Serratia marcescens
How it was run: as §1

[27] = system: K. pneumoniae 503-994; details: Klebsiella pneumoniae, 503994, K. pneumoniae 503-994; read-out: MIC
How it was run: as §1

[28] = system: P. mirabilis 620A; details: Proteus mirabilis, 620A, P. mirabilis 620A; read-out: MIC
How it was run: as §1

[29] = system: P. aeruginosa 5712; details: Pseudomonas aeruginosa; P. aeruginosa 5712; read-out: MIC
How it was run: as §1

[30] = system: S. marcescens S714; details: Serratia marcescens, S714, S. marcescens S714; read-out: MIC
How it was run: as §1

[31] = system: E. coli 48; details: Escherichia coli, 48, E. coli 48; read-out: MIC
How it was run: as §1

[32] = system: P. mirabilis 503-1136; details: Proteus mirabilis, 5031136, P. mirabilis 503-1136; read-out: MIC
How it was run: as §1

[33] = system: S. typhi P58A; details: Salmonella enterica, TYPHI
How it was run: as §1

[34] = system: P. mirabilis 2; details: Proteus mirabilis, 2, P. mirabilis 2; read-out: MIC
How it was run: as §1

[35] = system: S. marcescens SM; details: Serratia marcescens, read-out: MIC
How it was run: as §1

[36] = system: S. pneumoniae SC; details: Streptococcus pneumoniae, read-out: MIC
How it was run: as §1

[37] = system: E. coli R-563; details: Escherichia coli
How it was run: as §1

[38] = system: E. cloacae 9295; details: Enterobacter cloacae, 9295, E. cloacae 9295; read-out: MIC
How it was run: as §1

[39] = system: K. pneumoniae 5096; details: Klebsiella pneumoniae; K. pneumoniae 5096; read-out: MIC
How it was run: as §1

[40] = system: P. aeruginosa 8780; details: Pseudomonas aeruginosa; P. aeruginosa 8780; read-out: MIC
How it was run: as §1

[41] = system: K. pneumoniae HE7; details: Klebsiella pneumoniae; K. pneumoniae HE7; read-out: MIC
How it was run: as §1

[42] = system: C. freundii CDC6; details: Citrobacter freundii
How it was run: as §1

[43] = system: S. schottmuelleri; details: read-out: MIC
How it was run: as §1

[44] = system: K. pneumoniae 503-964; details: Klebsiella pneumoniae, 503964; K. pneumoniae 503-964; read-out: MIC
How it was run: as §1

[45] = Escherichia coli, 3871, E. coli 387-1, read-out: MIC
[46] = ATCC6380, P. vulgaris ATCC 6380, read-out: MIC
[47] = Serratia marcescens, 5805, S. marcescens 5805, read-out: MIC
[48] = S1, S. marcescens S1, read-out: MIC
[49] = R563, E. coli R-563, read-out: MIC
[50] = CDC6, C. freundii CDC6, read-out: MIC
[51] = Klebsiella pneumoniae, K. pneumoniae 35, read-out: MIC

Structure (SMILES): CCc1nc(C)cn1CCCC1CCN(C=N[C@@H]2C(=O)N3[C@@H]2SC(C)(C)[C@@H]3C(=O)O)CC1 [G, [2S-(2alpha,5alpha,6beta)]-6-[[[4-[3-(2-ethyl-4methyl-1H-imidazol-1-yl)propyl]piperidinyl]methylene]amino]-3,3-dimethyl-7-oxo-4-thia-1-azabicyclo[3.2.0]heptane-2-carboxylic acid hydrochloride]
- MIC [1, 45]: 0.25 mg/L
- MIC [2]: > 128 mg/L
- MIC [3]: 2 mg/L
- MIC [4]: 0.125 mg/L
- MIC [5]; 100: 32 mg/L
- MIC [6]: 0.5 mg/L
- MIC [7]: 0.125 mg/L
- MIC [8]: 16 mg/L
- MIC ([9]; read-out: MIC): > 128 mg/L
- MIC ([10]; Escherichia coli, 5152): 16 mg/L
- MIC [11]: 0.5 mg/L
- MIC [12]: > 128 mg/L
- MIC ([13]; Klebsiella pneumoniae, 4964): 2 mg/L
- MIC [14]: 128 mg/L
- MIC [15]: 0.25 mg/L
- MIC [16, 46]: 0.25 mg/L
- MIC [17]: 1 mg/L
- MIC [18]: 8 mg/L
- MIC ([19]; Klebsiella pneumoniae, 35, K. pneumoniae 35): 0.5 mg/L
- MIC [20]: > 128 mg/L
- MIC [21]: 1 mg/L
- MIC [22]: 2 mg/L
- MIC [23]: 1 mg/L
- MIC [24, 47]: 4 mg/L
- MIC [25]: > 128 mg/L
- MIC [26, 48]: 1 mg/L
- MIC [27]: 0.25 mg/L
- MIC [28]: 64 mg/L
- MIC [29]: > 128 mg/L
- MIC [30]: 8 mg/L
- MIC [31]: 0.062 mg/L
- MIC [32]: 16 mg/L
- MIC [33]: 0.25 mg/L
- MIC [34]: 1 mg/L
- MIC [35]: 1 mg/L
- MIC [36]: 1 mg/L
- MIC [37, 49]: 0.25 mg/L
- MIC [38]: 0.5 mg/L
- MIC [39]: 128 mg/L
- MIC [40]: > 128 mg/L
- MIC [41]: > 128 mg/L
- MIC [42, 50]: 0.25 mg/L
- MIC [43]: 0.125 mg/L
- MIC [44]: 0.062 mg/L

Structure (SMILES): CC1(C)S[C@@H]2[C@H](N=CN3CCC(Cn4ccnc4)CC3)C(=O)N2[C@H]1C(=O)O [Compound A]
- MIC ([1]; Escherichia coli, 3871): 0.125 mg/L (≈ 0.319 µM)
- MIC [2]: > 128 mg/L
- MIC [3]: 2 mg/L (≈ 5.11 µM)
- MIC [4]: 0.125 mg/L (≈ 0.319 µM)
- MIC ([5]; P. vulgaris 100, read-out: MIC): 8 mg/L (≈ 20.4 µM)
- MIC [6]: 0.25 mg/L (≈ 0.639 µM)
- MIC ([7]; K. pneumoniae A, read-out: MIC): < 0.008 mg/L
- MIC [8]: 16 mg/L (≈ 40.9 µM)
- MIC ([9]; read-out: MIC): > 128 mg/L
- MIC ([10]; Escherichia coli, 5152, E. coli 5152, read-out: MIC): 16 mg/L (≈ 40.9 µM)
- MIC [11]: 2 mg/L (≈ 5.11 µM)
- MIC [12]: > 128 mg/L
- MIC ([13]; Klebsiella pneumoniae, 4964, K. pneumoniae 4964, read-out: MIC): 2 mg/L (≈ 5.11 µM)
- MIC [14]: 128 mg/L (≈ 327 µM)
- MIC [15]: 0.062 mg/L (≈ 0.158 µM)
- MIC ([16]; ATCC6380): 0.125 mg/L (≈ 0.319 µM)
- MIC [17]: 0.25 mg/L (≈ 0.639 µM)
- MIC [18]: 8 mg/L (≈ 20.4 µM)
- MIC [19, 51]: 0.25 mg/L (≈ 0.639 µM)
- MIC [20]: > 128 mg/L
- MIC [21]: 0.5 mg/L (≈ 1.28 µM)
- MIC [22]: 1 mg/L (≈ 2.55 µM)
- MIC [23]: 1 mg/L (≈ 2.55 µM)
- MIC [24, 47]: 1 mg/L (≈ 2.55 µM)
- MIC [25]: > 128 mg/L
- MIC [26, 48]: 0.25 mg/L (≈ 0.639 µM)
- MIC [27]: 0.25 mg/L (≈ 0.639 µM)
- MIC [28]: 16 mg/L (≈ 40.9 µM)
- MIC [29]: > 128 mg/L
- MIC [30]: 1 mg/L (≈ 2.55 µM)
- MIC [31]: 0.062 mg/L (≈ 0.158 µM)
- MIC [32]: 8 mg/L (≈ 20.4 µM)
- MIC [33]: 0.25 mg/L (≈ 0.639 µM)
- MIC [34]: 0.5 mg/L (≈ 1.28 µM)
- MIC [35]: 0.25 mg/L (≈ 0.639 µM)
- MIC [36]: 2 mg/L (≈ 5.11 µM)
- MIC ([37]; R563): 0.125 mg/L (≈ 0.319 µM)
- MIC [38]: 0.5 mg/L (≈ 1.28 µM)
- MIC [39]: 64 mg/L (≈ 163 µM)
- MIC [40]: > 128 mg/L
- MIC [41]: > 128 mg/L
- MIC ([42]; CDC6): 0.125 mg/L (≈ 0.319 µM)
- MIC [43]: 0.125 mg/L (≈ 0.319 µM)
- MIC [44]: 0.016 mg/L (≈ 0.0409 µM)

Structure (SMILES): CC1(C)S[C@@H]2[C@H](N=CN3CCC(CCC4=NCCN4)CC3)C(=O)N2[C@H]1C(=O)O [N, [2S-(2alpha,5alpha,6beta)]-6-[[[4-[4,5-dihydro-1H-imidazol-2-yl)ethyl]-1-piperidinyl]methylene]amino]-3,3-dimethyl-7-oxo-4-thia-1-azabicyclo[3.2.0]heptane-2-carboxylic acid hydrochloride]
- MIC [1, 45]: 0.016 mg/L
- MIC [2]: 16 mg/L
- MIC [3]: 2 mg/L
- MIC ([4]; C. diversus CDC 1663-72, read-out: MIC): 0.031 mg/L
- MIC [5]; 100: 0.5 mg/L
- MIC [6]: 0.016 mg/L
- MIC ([7]; K. pneumoniae A, read-out: MIC): 0.016 mg/L
- MIC [8]: 64 mg/L
- MIC [9]: 16 mg/L
- MIC ([10]; Escherichia coli, 5152): 8 mg/L
- MIC [11]: 8 mg/L
- MIC [12]: > 128 mg/L
- MIC ([13]; Klebsiella pneumoniae, 4964): 32 mg/L
- MIC [14]: 64 mg/L
- MIC [15]: 0.016 mg/L
- MIC [16, 46]: 0.031 mg/L
- MIC [17]: 0.062 mg/L
- MIC [18]: 8 mg/L
- MIC [19, 51]: 0.125 mg/L
- MIC [20]: 32 mg/L
- MIC [21]: 0.125 mg/L
- MIC [22]: 0.25 mg/L
- MIC [23]: 1 mg/L
- MIC ([24]; Serratia marcescens, 5805): 0.25 mg/L
- MIC [25]: 32 mg/L
- MIC ([26]; S1): 2 mg/L
- MIC [27]: 0.062 mg/L
- MIC [28]: 128 mg/L
- MIC [29]: 64 mg/L
- MIC [30]: 0.125 mg/L
- MIC [31]: 0.031 mg/L
- MIC [32]: 4 mg/L
- MIC [33]: 0.031 mg/L
- MIC [34]: 0.125 mg/L
- MIC [35]: 0.062 mg/L
- MIC [36]: 1 mg/L
- MIC [37, 49]: 0.031 mg/L
- MIC [38]: 0.125 mg/L
- MIC [39]: > 128 mg/L
- MIC [40]: 128 mg/L
- MIC [41]: > 128 mg/L
- MIC [42, 50]: 0.031 mg/L
- MIC [43]: 0.031 mg/L
- MIC [44]: 0.062 mg/L
